Among the data in US20140005163A1 (NOVARTIS AG, priority 2010, published 2014) are IC50 values, retold here.

For assay [1], the target named is T1, PI3K delta (Homo sapiens, UniProt O00329).
T1 construct: for the full-length p110-d subunit are generated and fused by overlapping PCR; p85(iSH2) fusion partner (see partner chain) (N); His tag (C); made in house; host or cells: baculovirus; Tn5 (Trichoplusia ni) or TiniPro insect cells
Nature of the assay: PI3K delta kinase assay (Kinase-Glo luminescence). In kind it is biochemical. Put shortly: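 ATP 1 μM, PI 10 μg/mL, PI3Kδ construct BV1060 10 nM (final); 10 mM Tris pH 7.5, 3 mM MgCl2, 50 mM NaCl, 0.05% CHAPS, 1 mM DTT; 60 min RT; Kinase-Glo stop, luminescence.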
Background: In Kinase-Glo more light means more ATP remaining.

Assay [2] deals with PKB Ser473 phosphorylation in Rat1-myr-HA-p110 alpha cells. As to the kind of experiment: Reverse protein array assay, PKB Ser473 phosphorylation in Rat1-myr-p110 alpha cells. Type of assay: cell-based. The settings on record: 0.5 h, pAkt Ser473, 30 minutes compound incubation, read-out: p-PKB IC50. The procedure, abridged: (§1)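 Rat1 cells expressing myristoylated HA-tagged p110 alpha, beta or delta were plated for at least 20 h, then exposed to 8-step serial compound dilutions (0.2% DMSO final) for 30 min at 37 °C. Lysates were spotted at four dilutions on protein microarrays, and relative fluorescence intensity of phospho-Ser473 PKB was calculated.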

For assay [3], the system named is PKB Ser473 phosphorylation in Rat1-myr-HA-p110 beta cells. As to the kind of experiment: Reverse protein array assay, PKB Ser473 phosphorylation in Rat1-myr-p110 beta cells. Type of assay: cell-based. The conditions noted are these: 0.5 h, pAkt Ser473, 30 minutes incubation, read-out: p-PKB IC50. Put shortly:
as §1

Assay [4] has as its system S6 Ribosomal Protein phosphorylation Ser235/236 in TSC1 null mouse embryo fibroblast (MEF) cells. Nature of the assay: Reverse protein array assay, S6 Ribosomal Protein phosphorylation Ser235/236 in TSC1 null MEF cells. The settings on record: 1 h, pS6 ribosomal protein Ser235/236, 60 minutes incubation, read-out: p-S6 IC50. In kind it is cell-based. Put shortly:
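TSC1−/− MEFs, seeded and held ≥20 h at 37 °C/5% CO2, were exposed to 8-step serial compound dilutions (0.02% DMSO final; DMSO vehicle control) for 60 min at 37 °C. Cells were then lysed on ice for 10 min and lysates spotted onto reverse protein array chips.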

Each structure is given as a SMILES string. pIC50: −log10 of the molar value.

T1 sequence (O00329 with tags, fused parts or gaps limits assumed): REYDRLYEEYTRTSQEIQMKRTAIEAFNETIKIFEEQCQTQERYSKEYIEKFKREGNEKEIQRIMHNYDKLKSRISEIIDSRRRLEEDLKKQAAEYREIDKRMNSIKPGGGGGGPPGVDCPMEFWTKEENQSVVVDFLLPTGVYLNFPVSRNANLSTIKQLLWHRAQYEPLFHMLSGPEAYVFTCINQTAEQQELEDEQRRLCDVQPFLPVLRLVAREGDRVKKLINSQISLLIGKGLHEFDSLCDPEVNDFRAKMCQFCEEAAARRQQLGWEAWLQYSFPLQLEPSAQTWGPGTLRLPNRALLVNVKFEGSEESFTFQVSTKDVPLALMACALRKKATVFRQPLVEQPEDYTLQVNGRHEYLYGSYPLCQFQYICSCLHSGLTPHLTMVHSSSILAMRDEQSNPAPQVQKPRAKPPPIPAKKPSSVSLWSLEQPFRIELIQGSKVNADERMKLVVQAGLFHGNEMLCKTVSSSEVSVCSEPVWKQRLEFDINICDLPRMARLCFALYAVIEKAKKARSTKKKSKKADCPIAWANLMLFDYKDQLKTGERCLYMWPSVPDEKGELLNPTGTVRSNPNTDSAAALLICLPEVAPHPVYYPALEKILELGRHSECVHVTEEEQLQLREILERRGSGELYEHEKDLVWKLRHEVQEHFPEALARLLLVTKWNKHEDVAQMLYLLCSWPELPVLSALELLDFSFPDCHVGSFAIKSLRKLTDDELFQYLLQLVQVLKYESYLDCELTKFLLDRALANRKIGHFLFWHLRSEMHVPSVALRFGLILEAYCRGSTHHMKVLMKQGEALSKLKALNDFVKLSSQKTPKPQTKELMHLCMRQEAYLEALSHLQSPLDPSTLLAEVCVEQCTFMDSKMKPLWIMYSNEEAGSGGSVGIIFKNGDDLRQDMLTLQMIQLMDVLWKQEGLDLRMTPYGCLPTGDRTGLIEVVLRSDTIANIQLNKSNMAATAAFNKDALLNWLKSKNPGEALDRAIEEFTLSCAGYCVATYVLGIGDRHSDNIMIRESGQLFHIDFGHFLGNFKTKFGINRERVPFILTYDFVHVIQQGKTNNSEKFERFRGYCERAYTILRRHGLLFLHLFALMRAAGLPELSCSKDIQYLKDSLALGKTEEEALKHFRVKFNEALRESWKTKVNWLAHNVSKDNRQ

For `CNc1ncc(-c2ccc3ncc4c(c3c2)n(-c2cn(C(C)C)nc2C)c(=O)n4C)cc1CO` [Example 171, 8-(5-Hydroxymethyl-6-methylamino-pyridin-3-yl)-1-(1-isopropyl-3-methyl-1H-pyrazol-4-yl)-3-methyl-1,3-dihydro-imidazo[4,5-c]quinolin-2-one], the pIC50 in assay [1] is 7.85; in assay [2], 8.05; in assay [3], more than 8.30; in assay [4], 8.52.
Take `Cc1cc(-n2c(=O)n(C)c3cnc4ccc(-c5cncc(N6CCOCC6)c5)cc4c32)n(C)n1` [Example 175.2, 1-(2,5-Dimethyl-2H-pyrazol-3-yl)-3-methyl-8-(5-morpholin-4-yl-pyridin-3-yl)-1,3-dihydro-imidazo[4,5-c]quinolin-2-one]: the pIC50 is 6.63 in assay [1], 7.23 in assay [2], 6.79 in assay [3] and 7.49 in assay [4].
The corresponding values for `Cc1nn(C)cc1-n1c(=O)n(C)c2cnc3ccc(-c4cncc(NC(C)C)c4)cc3c21` [Example 177.1, 1-(1,3-Dimethyl-1H-pyrazol-4-yl)-8-(5-isopropylamino-pyridin-3-yl)-3-methyl-1,3-dihydro-imidazo[4,5-c]quinolin-2-one] are 7.92, 8.05, 7.80 and 8.70.
The corresponding values for `Cc1nn(C)cc1-n1c(=O)n(C)c2cnc3ccc(-c4cncc(OCCF)c4)cc3c21` [Example 181, 1-(1,3-Dimethyl-1H-pyrazol-4-yl)-8-[5-(2-fluoro-ethoxy)-pyridin-3-yl]-3-methyl-1,3-dihydro-imidazo[4,5-c]quinolin-2-one] are 7.62, 7.29, 7.27 and 8.52.
For the compound `Cc1nn(C)cc1-n1c(=O)n(C)c2cnc3ccc(-c4cncc(OC(CF)CF)c4)cc3c21` [Example 182, 1-(1,3-Dimethyl-1H-pyrazol-4-yl)-8-[5-(2-fluoro-1-fluoromethyl-ethoxy)-pyridin-3-yl]-3-methyl-1,3-dihydro-imidazo[4,5-c]quinolin-2-one], the pIC50 is 8.10 in assay [1], 7.82 in assay [2], 7.74 in assay [3] and 8.30 in assay [4].
Consider `COc1cc(-c2ccc3ncc4c(c3c2)n(-c2cn(C(C)C)nc2C)c(=O)n4C)cnc1CO` [Example 194.1, 8-(6-Hydroxymethyl-5-methoxy-pyridin-3-yl)-1-(1-isopropyl-3-methyl-1H-pyrazol-4-yl)-3-methyl-1,3-dihydro-imidazo[4,5-c]quinolin-2-one], for which the pIC50 in assay [1] is 7.82; in assay [2] it was 7.36; in assay [3], 7.09; in assay [4] it was 7.70.
The matching figures for `COc1cc(-c2ccc3ncc4c(c3c2)n(-c2cn(C)nc2Cl)c(=O)n4C)cnc1CO` [Example 194.2, 1-(3-chloro-1-methyl-1H-pyrazol-4-yl)-8-(6-hydroxymethyl-5-methoxy-pyridin-3-yl)-3-methyl-1,3-dihydro-imidazo[4,5-c]quinolin-2-one]: more than 8.52, 8.05, 8.00 and 8.70.
For the compound `CCOCc1ncc(-c2ccc3ncc4c(c3c2)n(-c2cn(C)nc2Cl)c(=O)n4C)cc1OC` [Example 196.1, 1-(3-Chloro-1-methyl-1H-pyrazol-4-yl)-8-(6-ethoxymethyl-5-methoxy-pyridin-3-yl)-3-methyl-1,3-dihydro-imidazo[4,5-c]quinolin-2-one], the pIC50 is 8.30 in assay [1], 7.35 in assay [2], 6.99 in assay [3] and 8.00 in assay [4].
The corresponding values for `COc1ncc(-c2ccc3ncc4c(c3c2)n(-c2cn(C)nc2Cl)c(=O)n4C)cc1CO` [Example 200, 1-(3-Chloro-1-methyl-1H-pyrazol-4-yl)-8-(5-hydroxymethyl-6-methoxy-pyridin-3-yl)-3-methyl-1,3-dihydro-imidazo[4,5-c]quinolin-2-one] are 8.00, more than 8.30, more than 8.30 and more than 9.30.

Usually pIC50 stands for the negative decadic logarithm of the IC50, by convention in mol/L.
